According to PMC10141604, “Small-Molecule Inhibition of Androgen Receptor Dimerization as a Strategy against Prostate Cancer” (ACS Central Science, 2023):

Target: T1, AR LBD dimer (Homo sapiens, UniProt P10275)
T1 construct: The AR LBD (663-919) was fused into the pET50b vector with Nus-tag; Nus-tag (cleaved yes); made in house; host or cells: E. coli BL21 (DE3)
Test: SAXS and CXMS analysis of AR LBD dimerization
Type: biochemical
Protocol: 30 μM AR LBD protein was crosslinked with a 50× molar excess of freshly prepared BS3 (#21580, ThermoFisher) in 20 mM HEPES (pH 7.4), 5% Glycerol, 150 mM NaCl, 10 μM DHT, with or without 90 μM M17-B15. The cross-linking reaction was conducted at room temperature with gentle mixing, and was quenched after 45 min with the addition of Tris-HCl buffer (pH 8.0) to a concentration of 20 mM.
Cross-linked proteins were precipitated with 6-fold volume of pre-cooled acetone for 2 h at -20 °C. Centrifuge at 14,000 rpm for 20 min, and discard the supernatant. Then added 20 μL 100 mM Tris-HCl buffer (pH 8.5), 8 M urea, and ultrasound for 20 min to assist protein dissolution. 5 mM reducing agent TCEP, 10 mM alkylating agent iodoacetamide, 1 mM CaCl2 and 20 mM methylamine were added in tandem. And 3-fold volume of 100 mM Tris pH 8.5 was added to dilute urea to 2 M. Then added trypsin (the mass ratio of enzyme to protein is 1:50) and digested the protein samples at 37 °C for 14 h. Finally, quenched the digestion reaction by adding formic acid with a final […]
An Easy nLC 1000 system (ThermoFisher) coupled to a Velos Pro Orbitrap Elite mass spectrometer (ThermoFisher) was used for mass spectrometry analysis. The resulting peptide mixture was vacuum-centrifuged to dryness, and reconstituted in 0.1% formic acid. […]
respectively. […] The scattering profile for matching buffer was also recorded and was subtracted. […]

T1 sequence (P10275 663-919): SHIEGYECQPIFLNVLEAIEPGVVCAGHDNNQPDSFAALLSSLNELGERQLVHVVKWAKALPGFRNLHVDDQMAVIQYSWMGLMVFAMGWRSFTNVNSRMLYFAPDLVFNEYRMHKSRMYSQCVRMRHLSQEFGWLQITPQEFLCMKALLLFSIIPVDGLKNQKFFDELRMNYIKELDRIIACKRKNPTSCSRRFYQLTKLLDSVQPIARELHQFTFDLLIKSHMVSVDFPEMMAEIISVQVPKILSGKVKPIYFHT

Dmax value of the AR LBD (SAXS) (upon addition of compound): markedly reduced
proportion of the AR LBD dimer (with DHT, 20% without M17-B15): 15%
Compound: CC(=O)Cc1nsc(NC(=O)c2cc(-c3cccc(C(F)(F)F)c3)oc2C)n1 [Compound M17-B15]
